Data reported in patent US12478090B2, “Aerosolizable formulation” (NICOVENTURES TRADING LIMITED, priority 2018, dated 2025).
“Also recorded” adds a separate entry of the source.

Tests used:
[1] = compared to base cyclodextrins such as β-cyclodextrin; cited from earlier work
[2] = Diffusion-Ordered NMR Spectroscopy (DOSY): diffusion coefficient and residence time within cyclodextrin; type: physicochemical; settings: for residency time within 2-hydroxy-propyl-β-cyclodextrin: inferred from DOSY NMR diffusion, Formulations 1 and 2 and spiked ratios 1:4:1 / 1:4:1:1
Protocol: The interaction between cyclodextrin and menthol and cyclodextrin and nicotine (unprotonated and monoprotonated) was assessed using NMR spectroscopy. The study was conducted on formulations containing
Formulation 1-90.0% (w/w) water, 0.9% (w/w) 1-menthol, 9% (w/w) 2-hydroxy-propyl-β-cyclodextrin, and 0.1% (w/w) nicotine.
Formulation 2-89.9% (w/w) water, 0.9% (w/w) 1-menthol, 9% (w/w) 2-hydroxy-propyl-β-cyclodextrin, 0.1% (w/w) nicotine and 0.1% (w/w) citric acid.
During the NMR studies the assessment of the diffusion coefficient and subsequent residence times of monoprotonated nicotine, unprotonated nicotine, menthol within 2-hydroxy-propyl-β-cyclodextrin. The diffusion coefficient and subsequent residence times were studied as they are understood to provide a qualitative assessment of the degree of interaction of the compound with the complexing agent with each of the components studied. It is understood that encapsulation is not a static state but a dynamic one in which materials are encapsulated (e.g. complexed or bound to an encapsulating agent) for a period of time before release after which they may be subsequently encapsulated. Therefore, decreased residence time indicates decreased interaction with the complexing agent.
Diffusion-Ordered NMR Spectroscopy (DOSY) experiments were selected as suitable for assessment of diffusion times of nicotine and menthol solutions of individual constituents, in the formulation describe above and formulations with spike components to vary the ratios of constituents (nicotine: 2-hydroxy-propyl-β-cyclodextrin:menthol=1:4:1 and nicotine: 2-hydroxy-propyl-β-cyclodextrin:menthol:citric acid=1:4:1:1 molar ratios).

[3] = nicotinium citrate gel added in place of nicotine; no heating or filtration steps

2-hydroxy-propyl-β-cyclodextrin
solubility in water [1]: increased solubility in water

CN1CCC[C@H]1c1cccnc1 [unprotonated nicotine]
residency time within 2-hydroxy-propyl-β-cyclodextrin [2]: higher residence within 2-hydroxy-propyl-β-cyclodextrin than mono-protonated nicotine; also recorded: mono-protonated nicotine<unprotonated nicotine<menthol

CC1CCC(C(C)C)C(O)C1 (stereo not drawn) [menthol]
residency time within 2-hydroxy-propyl-β-cyclodextrin [2]: higher than that of nicotine in both its monoprotonated and unprotonated form; also recorded: mono-protonated nicotine<unprotonated nicotine<menthol

CN1CCCC1c1cccnc1.O=C(O)CC(O)(CC(=O)O)C(=O)O [nicotinium citrate]
visual precipitate in formulation [3]: lack of any visual precipitate

CN1CCC[C@H]1c1cccnc1 [monoprotonated nicotine]
diffusion coefficient ([2]; DOSY NMR, aqueous formulation with menthol and 2-hydroxy-propyl-β-cyclodextrin, with vs without citric acid): faster diffusion coefficient compared to the nicotine without citric acid | residency time within 2-hydroxy-propyl-β-cyclodextrin ([2]; listed as mono-protonated nicotine): mono-protonated nicotine<unprotonated nicotine<menthol
